Assay results from ChEMBL document CHEMBL4507307 (2021).
One block for each molecule: values may come before it.

Assays:
[1] = biological target: Homeodomain-interacting protein kinase 1 (Homo sapiens) (UniProt Q86Z02); assay: HIPK1 (Myak) Kinase activity screen
[2] = biological target: Dual specificity protein kinase CLK3 (Homo sapiens) (UniProt P49761); assay: CLK3 Kinase activity screen
[3] = biological target: MAP kinase-activated protein kinase 2 (Homo sapiens) (UniProt P49137); assay: MAPKAPK2 Kinase activity screen
[4] = biological target: Casein kinase I isoform alpha (Homo sapiens) (UniProt P48729); assay: CSNK1A1 (CK1 alpha 1) Kinase activity screen
[5] = biological target: Mitogen-activated protein kinase 11 (Homo sapiens) (UniProt Q15759); assay: MAPK11 (p38 beta) Kinase activity screen
[6] = biological target: Dual specificity tyrosine-phosphorylation-regulated kinase 1B (Homo sapiens, UniProt Q9Y463); assay: DYRK1B Kinase activity screen
Chain of Dual specificity tyrosine-phosphorylation-regulated kinase 1B (Q9Y463 whole entry, looked up): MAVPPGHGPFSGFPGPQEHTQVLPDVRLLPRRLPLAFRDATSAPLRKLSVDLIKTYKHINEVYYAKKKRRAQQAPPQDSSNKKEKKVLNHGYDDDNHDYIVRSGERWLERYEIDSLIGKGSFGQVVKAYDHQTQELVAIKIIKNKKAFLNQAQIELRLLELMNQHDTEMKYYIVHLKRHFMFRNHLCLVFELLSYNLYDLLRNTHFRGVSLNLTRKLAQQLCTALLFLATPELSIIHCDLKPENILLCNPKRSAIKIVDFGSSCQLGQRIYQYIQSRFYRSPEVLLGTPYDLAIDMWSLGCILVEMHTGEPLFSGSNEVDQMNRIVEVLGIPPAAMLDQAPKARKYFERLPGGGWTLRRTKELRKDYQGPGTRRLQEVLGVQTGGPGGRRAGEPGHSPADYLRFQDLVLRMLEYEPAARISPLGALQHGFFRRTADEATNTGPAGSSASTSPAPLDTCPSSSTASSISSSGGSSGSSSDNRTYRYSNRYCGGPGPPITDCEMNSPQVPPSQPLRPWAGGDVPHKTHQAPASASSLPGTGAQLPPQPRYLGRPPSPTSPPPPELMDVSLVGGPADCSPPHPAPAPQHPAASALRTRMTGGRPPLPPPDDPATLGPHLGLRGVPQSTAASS

[7] = biological target: cAMP-dependent protein kinase catalytic subunit alpha (Homo sapiens) (UniProt P17612); assay: PRKACA (PKA) Kinase activity screen
[8] = biological target: Ephrin type-A receptor 2 (Homo sapiens) (UniProt P29317); assay: EPHA2 Kinase activity screen
[9] = biological target: CDK7/Cyclin H/MNAT1 (Homo sapiens) (UniProt P51946+P50613+P51948); assay: CDK7/cyclin H/MNAT1 Kinase activity screen; assay type: protein-complex assay
[10] = biological target: Dual specificity tyrosine-phosphorylation-regulated kinase 3 (Homo sapiens) (UniProt O43781); assay: DYRK3 Kinase activity screen
[11] = biological target: Dual specificity mitogen-activated protein kinase kinase 2 (Homo sapiens) (UniProt P36507); assay: MAP2K2 (MEK2) Kinase activity screen
[12] = biological target: SRSF protein kinase 1 (Homo sapiens) (UniProt Q96SB4); assay: SRPK1 Kinase activity screen
[13] = biological target: Mast/stem cell growth factor receptor Kit (Homo sapiens) (UniProt P10721); assay: KIT Kinase activity screen
[14] = biological target: Dual specificity protein kinase CLK1 (Homo sapiens, UniProt P49759); assay: CLK1 Kinase activity screen
[15] = biological target: Fibroblast growth factor receptor 1 (Homo sapiens) (UniProt P11362); assay: FGFR1 Kinase activity screen
[16] = biological target: Angiopoietin-1 receptor (Homo sapiens) (UniProt Q02763); assay: TEK (Tie2) Kinase activity screen
[17] = biological target: Proto-oncogene tyrosine-protein kinase receptor Ret (Homo sapiens) (UniProt P07949); assay: RET Kinase activity screen
Chain of Proto-oncogene tyrosine-protein kinase receptor Ret (Homo sapiens) (P07949 whole entry): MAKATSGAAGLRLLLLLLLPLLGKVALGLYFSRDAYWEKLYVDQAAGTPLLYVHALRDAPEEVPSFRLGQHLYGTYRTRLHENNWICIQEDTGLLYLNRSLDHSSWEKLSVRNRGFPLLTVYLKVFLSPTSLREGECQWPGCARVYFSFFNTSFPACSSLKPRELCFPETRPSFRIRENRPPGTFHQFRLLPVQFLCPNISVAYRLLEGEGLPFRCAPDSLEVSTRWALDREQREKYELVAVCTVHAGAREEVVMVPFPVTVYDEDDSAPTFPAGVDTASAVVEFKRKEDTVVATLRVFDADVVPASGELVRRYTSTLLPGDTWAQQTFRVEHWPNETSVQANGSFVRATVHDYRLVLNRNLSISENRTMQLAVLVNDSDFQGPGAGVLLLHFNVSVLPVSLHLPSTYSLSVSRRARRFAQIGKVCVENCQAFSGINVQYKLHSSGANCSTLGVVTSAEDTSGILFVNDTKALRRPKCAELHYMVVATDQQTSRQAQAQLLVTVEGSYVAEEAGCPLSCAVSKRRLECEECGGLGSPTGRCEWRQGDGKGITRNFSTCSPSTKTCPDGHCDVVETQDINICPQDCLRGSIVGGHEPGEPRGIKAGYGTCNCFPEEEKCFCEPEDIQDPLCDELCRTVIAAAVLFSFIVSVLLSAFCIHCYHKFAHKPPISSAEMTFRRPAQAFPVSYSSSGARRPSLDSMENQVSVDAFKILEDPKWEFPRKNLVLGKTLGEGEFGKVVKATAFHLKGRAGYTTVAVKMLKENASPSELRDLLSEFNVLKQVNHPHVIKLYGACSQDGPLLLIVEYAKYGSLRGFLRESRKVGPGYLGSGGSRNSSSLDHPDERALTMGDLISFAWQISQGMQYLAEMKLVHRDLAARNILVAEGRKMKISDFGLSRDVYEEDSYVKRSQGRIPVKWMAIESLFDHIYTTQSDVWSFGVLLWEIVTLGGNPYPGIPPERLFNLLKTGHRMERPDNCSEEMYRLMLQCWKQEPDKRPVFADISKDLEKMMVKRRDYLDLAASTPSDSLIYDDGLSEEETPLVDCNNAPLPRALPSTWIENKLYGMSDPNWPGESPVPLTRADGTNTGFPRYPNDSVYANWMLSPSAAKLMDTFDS

[18] = biological target: PI3-kinase p110-alpha/p85-alpha (Homo sapiens) (UniProt P27986+P42336); assay: PIK3CA/PIK3R1 (p110 alpha/p85 alpha) Kinase activity screen; assay type: protein-complex assay
[19] = biological target: Ephrin type-A receptor 1 (Homo sapiens) (UniProt P21709); assay: EPHA1 Kinase activity screen
[20] = biological target: Cyclin-dependent kinase 1/cyclin B (Homo sapiens) (UniProt P06493+P14635+Q8WWL7+O95067); assay: CDK1/cyclin B Kinase activity screen; assay type: protein-complex assay
[21] = biological target: Tyrosine-protein kinase JAK1 (Homo sapiens) (UniProt P23458); assay: JAK1 Kinase activity screen; conditions: Compound concentration 0.1 uM
[22] = biological target: Rho-associated protein kinase 1 (Homo sapiens) (UniProt Q13464); assay: ROCK1 Kinase activity screen
[23] = biological target: Mitogen-activated protein kinase 8 (Homo sapiens) (UniProt P45983); assay: MAPK8 (JNK1) Kinase activity screen
[24] = biological target: Ephrin type-B receptor 1 (Homo sapiens) (UniProt P54762); assay: EPHB1 Kinase activity screen
[25] = biological target: SRSF protein kinase 2 (Homo sapiens) (UniProt P78362); assay: SRPK2 Kinase activity screen
[26] = biological target: Ribosomal protein S6 kinase beta-1 (Homo sapiens) (UniProt P23443); assay: RPS6KB1 (p70S6K) Kinase activity screen
Chain of Ribosomal protein S6 kinase beta-1 (Homo sapiens) (P23443 whole entry, looked up): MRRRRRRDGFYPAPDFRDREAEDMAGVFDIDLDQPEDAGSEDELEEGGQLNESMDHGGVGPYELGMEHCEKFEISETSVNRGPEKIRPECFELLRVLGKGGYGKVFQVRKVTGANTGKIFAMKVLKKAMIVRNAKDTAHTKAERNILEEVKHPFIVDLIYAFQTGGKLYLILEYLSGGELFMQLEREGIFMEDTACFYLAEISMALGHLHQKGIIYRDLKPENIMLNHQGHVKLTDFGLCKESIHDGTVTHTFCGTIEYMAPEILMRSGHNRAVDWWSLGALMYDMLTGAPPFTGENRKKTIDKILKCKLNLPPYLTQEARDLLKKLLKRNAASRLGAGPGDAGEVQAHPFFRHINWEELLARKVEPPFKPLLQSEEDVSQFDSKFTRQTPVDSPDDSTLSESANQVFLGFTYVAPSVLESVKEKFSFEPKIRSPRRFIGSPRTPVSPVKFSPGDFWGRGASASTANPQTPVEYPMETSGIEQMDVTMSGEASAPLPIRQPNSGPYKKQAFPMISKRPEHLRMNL

[27] = biological target: Aurora kinase A (Homo sapiens) (UniProt O14965); assay: AURKA (Aurora A) Kinase activity screen
Chain of Aurora kinase A (Homo sapiens) (O14965 whole entry): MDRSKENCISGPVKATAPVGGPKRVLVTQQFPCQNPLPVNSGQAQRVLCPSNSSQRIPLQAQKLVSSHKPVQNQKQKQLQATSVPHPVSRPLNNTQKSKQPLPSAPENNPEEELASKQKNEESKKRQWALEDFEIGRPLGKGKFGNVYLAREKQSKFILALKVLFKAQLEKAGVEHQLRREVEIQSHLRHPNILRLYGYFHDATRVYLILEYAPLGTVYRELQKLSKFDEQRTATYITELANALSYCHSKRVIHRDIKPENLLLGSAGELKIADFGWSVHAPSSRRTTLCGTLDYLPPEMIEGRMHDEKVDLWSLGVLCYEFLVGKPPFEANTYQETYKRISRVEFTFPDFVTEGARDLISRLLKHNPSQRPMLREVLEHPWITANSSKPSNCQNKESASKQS

[28] = biological target: Alpha-2B adrenergic receptor (Homo sapiens, UniProt P18089); assay: GPCRScan assay: inhibition of Alpha2B; set-up: radioligand conc. used [nm] 1.5 – 2.0, parental cells HEKT
[29] = biological target: Beta-3 adrenergic receptor (Homo sapiens, UniProt P13945); assay: GPCRScan assay: inhibition of Beta3; set-up: radioligand conc. used [nm] 0.2 – 0.5, parental cells HEK Flp-In
[30] = biological target: 5-hydroxytryptamine receptor 2C (Homo sapiens, UniProt P28335); assay: GPCRScan assay: inhibition of 5-HT2C; set-up: radioligand conc. used [nm] 1.0 – 2.5, parental cells HEK T
[31] = biological target: Sigma intracellular receptor 2 (Homo sapiens, UniProt Q5BJF2); assay: GPCRScan assay: inhibition of Sigma 2; set-up: radioligand conc. used [nm] 5.0, parental cells HEKT
[32] = biological target: Alpha-2C adrenergic receptor (Homo sapiens, UniProt P18825); assay: GPCRScan assay: inhibition of Alpha2C; set-up: radioligand conc. used [nm] 0.5 – 1.0, parental cells stable MDCK
[33] = biological target: 5-hydroxytryptamine receptor 5A (Homo sapiens, UniProt P47898); assay: GPCRScan assay: inhibition of 5-HT5A; set-up: radioligand conc. used [nm] 2.0 - 3.3, parental cells Flp-In CHO
Chain of 5-hydroxytryptamine receptor 5A (P47898 whole entry): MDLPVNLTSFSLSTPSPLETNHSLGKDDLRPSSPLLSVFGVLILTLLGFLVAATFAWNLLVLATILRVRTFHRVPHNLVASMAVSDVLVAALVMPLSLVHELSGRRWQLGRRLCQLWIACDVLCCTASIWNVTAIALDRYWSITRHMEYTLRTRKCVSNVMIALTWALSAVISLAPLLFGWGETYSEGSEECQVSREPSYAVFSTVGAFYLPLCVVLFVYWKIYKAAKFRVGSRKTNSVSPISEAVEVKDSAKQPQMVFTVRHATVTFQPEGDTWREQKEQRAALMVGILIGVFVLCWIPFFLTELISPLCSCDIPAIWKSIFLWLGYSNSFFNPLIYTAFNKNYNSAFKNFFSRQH

[34] = biological target: D(2) dopamine receptor (Homo sapiens, UniProt P14416); assay: GPCRScan assay: inhibition of D2; set-up: radioligand conc. used [nm] 0.4 – 1.0, parental cells stable fibroblast
Chain of D(2) dopamine receptor (P14416 whole entry): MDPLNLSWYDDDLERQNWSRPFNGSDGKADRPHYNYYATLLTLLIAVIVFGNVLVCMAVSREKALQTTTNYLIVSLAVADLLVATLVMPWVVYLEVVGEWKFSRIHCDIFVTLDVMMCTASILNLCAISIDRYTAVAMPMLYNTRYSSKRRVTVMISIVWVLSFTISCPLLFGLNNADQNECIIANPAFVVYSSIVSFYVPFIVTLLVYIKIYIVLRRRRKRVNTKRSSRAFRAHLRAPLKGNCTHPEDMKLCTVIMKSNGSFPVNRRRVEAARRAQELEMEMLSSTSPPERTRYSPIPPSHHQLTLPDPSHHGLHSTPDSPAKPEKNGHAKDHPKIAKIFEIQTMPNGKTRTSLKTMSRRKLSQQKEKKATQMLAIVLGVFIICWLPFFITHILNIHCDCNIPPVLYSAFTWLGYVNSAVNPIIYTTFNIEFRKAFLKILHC

[35] = biological target: Histamine H2 receptor (Homo sapiens, UniProt P25021); assay: GPCRScan assay: inhibition of H2; set-up: radioligand conc. used [nm] 0.02 – 0.05, parental cells Stable HEK
Chain of Histamine H2 receptor (P25021 whole entry): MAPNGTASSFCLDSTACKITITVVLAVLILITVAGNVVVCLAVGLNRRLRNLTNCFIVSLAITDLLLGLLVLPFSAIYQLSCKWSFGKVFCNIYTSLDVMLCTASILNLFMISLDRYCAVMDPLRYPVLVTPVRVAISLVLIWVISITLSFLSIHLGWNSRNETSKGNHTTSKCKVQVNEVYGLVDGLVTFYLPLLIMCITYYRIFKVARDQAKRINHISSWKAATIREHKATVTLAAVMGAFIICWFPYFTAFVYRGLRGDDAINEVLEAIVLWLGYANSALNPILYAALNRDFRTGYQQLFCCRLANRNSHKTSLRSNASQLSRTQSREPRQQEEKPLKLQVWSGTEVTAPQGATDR

[36] = biological target: D(3) dopamine receptor (Homo sapiens, UniProt P35462); assay: GPCRScan assay: inhibition of D3; set-up: radioligand conc. used [nm] 0.5 – 1.8, parental cells HEKT
[37] = biological target: 5-hydroxytryptamine receptor 1D (Homo sapiens, UniProt P28221); assay: GPCRScan assay: inhibition of 5-HT1D; set-up: radioligand conc. used [nm] 1.0 – 2.0, parental cells HEKT
[38] = biological target: Kappa-type opioid receptor (Homo sapiens, UniProt P41145); assay: GPCRScan assay: inhibition of KOR; set-up: radioligand conc. used [nm] 0.6 – 1.2, parental cells stable HEK
[39] = biological target: 5-hydroxytryptamine receptor 1B (Homo sapiens, UniProt P28222); assay: GPCRScan assay: inhibition of 5-HT1B; set-up: radioligand conc. used [nm] 0.6 – 1.5, parental cells stable HEK
[40] = biological target: Alpha-1D adrenergic receptor (Homo sapiens, UniProt P25100); assay: GPCRScan assay: inhibition of Alpha1D; set-up: radioligand conc. used [nm] 0.3 – 1.0, parental cells stable
[41] = Compound concentration 0.123 uM

Chain of Homeodomain-interacting protein kinase 1 (Homo sapiens) (Q86Z02 whole entry, looked up): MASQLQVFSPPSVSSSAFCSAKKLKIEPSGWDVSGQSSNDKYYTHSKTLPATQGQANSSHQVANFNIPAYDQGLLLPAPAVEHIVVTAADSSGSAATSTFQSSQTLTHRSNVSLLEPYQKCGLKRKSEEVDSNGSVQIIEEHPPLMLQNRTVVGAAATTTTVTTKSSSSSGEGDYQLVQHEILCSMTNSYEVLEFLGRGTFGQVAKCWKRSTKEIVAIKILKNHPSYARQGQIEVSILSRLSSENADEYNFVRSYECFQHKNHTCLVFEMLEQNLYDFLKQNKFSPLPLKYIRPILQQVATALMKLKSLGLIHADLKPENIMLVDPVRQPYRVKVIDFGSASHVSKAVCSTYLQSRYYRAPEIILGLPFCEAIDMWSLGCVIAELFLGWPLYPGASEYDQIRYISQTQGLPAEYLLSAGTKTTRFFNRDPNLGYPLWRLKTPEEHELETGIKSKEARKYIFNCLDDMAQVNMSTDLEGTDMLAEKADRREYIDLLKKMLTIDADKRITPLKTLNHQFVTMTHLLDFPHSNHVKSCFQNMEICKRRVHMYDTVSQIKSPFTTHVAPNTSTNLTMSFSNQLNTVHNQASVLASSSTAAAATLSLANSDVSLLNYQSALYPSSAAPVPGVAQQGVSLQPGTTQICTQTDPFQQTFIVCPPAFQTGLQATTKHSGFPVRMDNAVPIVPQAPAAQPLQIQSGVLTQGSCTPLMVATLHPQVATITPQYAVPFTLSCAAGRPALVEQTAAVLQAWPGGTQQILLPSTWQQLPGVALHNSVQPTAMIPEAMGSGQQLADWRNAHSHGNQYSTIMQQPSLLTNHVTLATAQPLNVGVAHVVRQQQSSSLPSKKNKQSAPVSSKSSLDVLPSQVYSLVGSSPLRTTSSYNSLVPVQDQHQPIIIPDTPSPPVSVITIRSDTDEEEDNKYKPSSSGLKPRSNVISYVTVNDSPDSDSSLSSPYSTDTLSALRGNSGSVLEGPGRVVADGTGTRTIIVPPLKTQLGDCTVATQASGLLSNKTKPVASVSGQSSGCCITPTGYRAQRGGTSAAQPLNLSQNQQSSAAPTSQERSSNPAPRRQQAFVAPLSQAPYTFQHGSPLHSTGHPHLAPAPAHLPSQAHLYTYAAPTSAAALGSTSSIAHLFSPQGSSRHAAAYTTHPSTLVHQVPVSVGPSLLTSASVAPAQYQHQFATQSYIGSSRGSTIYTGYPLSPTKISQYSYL

- inhibition ([1]; Compound concentration 0.1 uM): -0.71%
- inhibition ([1]; Compound concentration 1.0 uM): 2.69%
- inhibition [2, 41]: 38.3%
- inhibition ([2]; Compound concentration 1.11 uM): 88.7%
- inhibition ([3]; Compound concentration 0.1 uM): 3.68%
- inhibition ([3]; Compound concentration 1.0 uM): 2.12%
- inhibition ([4]; Compound concentration 0.1 uM): -3.75%
- inhibition ([4]; Compound concentration 1.0 uM): -2.73%
- inhibition ([5]; Compound concentration 0.1 uM): 0.672%
- inhibition ([5]; Compound concentration 1.0 uM): 0.93%
- inhibition [6, 41]: 62.7%
- inhibition ([6]; Compound concentration 1.11 uM): 94.1%
- inhibition ([7]; Compound concentration 0.1 uM): -1.57%
- inhibition ([7]; Compound concentration 1.0 uM): 3.62%
- inhibition ([8]; Compound concentration 0.1 uM): -4.09%
- inhibition ([8]; Compound concentration 1.0 uM): -6.26%
- inhibition ([9]; Compound concentration 0.1 uM): 0.551%
- inhibition ([9]; Compound concentration 1.0 uM): -3.41%
- inhibition [10, 41]: -1.82%
- inhibition ([10]; Compound concentration 1.11 uM): 3.7%
- inhibition ([11]; Compound concentration 0.1 uM): 16.9%
- inhibition ([11]; Compound concentration 1.0 uM): 13.8%
- inhibition [12, 41]: -3.09%
- inhibition ([12]; Compound concentration 1.11 uM): -2.58%
- inhibition ([13]; Compound concentration 0.1 uM): 11%
- inhibition ([13]; Compound concentration 1.0 uM): 37.5%
- inhibition [14, 41]: 91.2%
- inhibition ([14]; Compound concentration 1.11 uM): 99.1%
- inhibition ([15]; Compound concentration 0.1 uM): 4.26%
- inhibition ([15]; Compound concentration 1.0 uM): 9.19%
- inhibition ([16]; Compound concentration 0.1 uM): 0.108%
- inhibition ([16]; Compound concentration 1.0 uM): -0.329%
- inhibition ([17]; Compound concentration 0.1 uM): -1.05%
- inhibition ([17]; Compound concentration 1.0 uM): -2.43%
- inhibition ([18]; Compound concentration 0.1 uM): 3.58%
- inhibition ([18]; Compound concentration 1.0 uM): 3.6%
- inhibition ([19]; Compound concentration 0.1 uM): -1.64%
- inhibition ([19]; Compound concentration 1.0 uM): -0.564%
- inhibition ([20]; Compound concentration 0.1 uM): 7.95%
- inhibition ([20]; Compound concentration 1.0 uM): 7.1%
- inhibition [21]: 10.9%
- inhibition ([22]; Compound concentration 0.1 uM): 5.17%
- inhibition ([22]; Compound concentration 1.0 uM): 9.37%
- inhibition ([23]; Compound concentration 0.1 uM): 5.45%
- inhibition ([23]; Compound concentration 1.0 uM): 2.56%
- inhibition ([24]; Compound concentration 0.1 uM): 4.83%
- inhibition ([24]; Compound concentration 1.0 uM): 4.09%
- inhibition [25, 41]: 1.82%
- inhibition ([25]; Compound concentration 1.11 uM): 5.16%
- inhibition ([26]; Compound concentration 0.1 uM): 2.21%
- inhibition ([26]; Compound concentration 1.0 uM): 0.698%
- inhibition ([27]; Compound concentration 0.1 uM): 4.51%
- inhibition ([27]; Compound concentration 1.0 uM): 8.55%
SMILES: CN1CCN(C(=O)C(C)(C)c2ccc(C(=O)Nc3cn4cc(-c5ccncc5)ccc4n3)cc2)CC1 [T3-CLK]

- Ki ([28]; read-out: Ki): 1650 nM
- Ki ([28]; read-out: pKi (converted)): 1620 nM
- Ki [29]: > 10000 nM
- pKi [29]: < 5
- Ki ([30]; read-out: Ki): 1070 nM
- Ki ([30]; read-out: pKi (converted)): 1050 nM
- Ki [31]: 412 nM
- Ki [32]: > 10000 nM
- pKi [32]: < 5
- Ki ([33]; read-out: Ki): 2490 nM
- Ki ([33]; read-out: pKi (converted)): 2240 nM
- Ki ([34]; read-out: Ki): 2750 nM
- Ki ([34]; read-out: pKi (converted)): 2340 nM
- Ki ([35]; read-out: Ki): 1730 nM
- Ki ([35]; read-out: pKi (converted)): 1620 nM
- Ki ([36]; read-out: Ki): 2250 nM
- Ki ([36]; read-out: pKi (converted)): 1910 nM
- Ki ([37]; read-out: Ki): 3070 nM
- Ki ([37]; read-out: pKi (converted)): 2820 nM
- Ki ([38]; read-out: Ki): 990 nM
- Ki ([38]; read-out: pKi (converted)): 977 nM
- Ki [39]: 2170 nM
- Ki [40]: 1450 nM
SMILES: CN1CCN(C(=O)C(C)(C)c2ccc(C(=O)Nc3cn4cc(-c5cc(C(C)(C)C)cc(C(C)(C)C)c5)ccc4n3)cc2)CC1 [T3-CLK-N]
